Measurements reported in PubChem BioAssay (NCI).
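Cells were grown in 96-well plates and exposed to each compound for 48 hours at five concentrations; endpoints were interpolated linearly between bracketing concentrations, or set to the highest concentration if not reached. TGI: concentration producing complete growth inhibition.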

What was measured:
Assay in all cases: NCI tumour cell line growth inhibition, 48 h
HL-60(TB) leukemia = test system: HL-60(TB) leukemia
NCI-H226 lung = test system: NCI-H226 lung
BT-549 breast = test system: BT-549 breast
SR leukemia = test system: SR leukemia
KM12 colon = test system: KM12 colon
M14 melanoma = test system: M14 melanoma
ACHN renal = test system: ACHN renal
SF-539 CNS = test system: SF-539 CNS
MDA-N = test system: MDA-N
SF-295 CNS = test system: SF-295 CNS
786-0 renal = test system: 786-0 renal
NCI-H23 lung = test system: NCI-H23 lung
TK-10 renal = test system: TK-10 renal
MDA-MB-435 = test system: MDA-MB-435
NCI/ADR-RES ovarian = test system: NCI/ADR-RES ovarian
K-562 leukemia = test system: K-562 leukemia
NCI-H460 lung = test system: NCI-H460 lung
OVCAR-4 ovarian = test system: OVCAR-4 ovarian
CCRF-CEM leukemia = test system: CCRF-CEM leukemia

Row | SMILES | TGI (HL-60(TB) leukemia) | TGI (NCI-H226 lung) | TGI (BT-549 breast) | TGI (SR leukemia) | TGI (KM12 colon) | TGI (M14 melanoma) | TGI (ACHN renal) | TGI (SF-539 CNS) | TGI (MDA-N) | TGI (SF-295 CNS) | TGI (786-0 renal) | TGI (NCI-H23 lung) | TGI (TK-10 renal) | TGI (MDA-MB-435) | TGI (NCI/ADR-RES ovarian) | TGI (K-562 leukemia) | TGI (NCI-H460 lung) | TGI (OVCAR-4 ovarian) | TGI (CCRF-CEM leukemia)
1 | COc1cccc(OC)c1C1ON=C(c2ccccc2)N1C12CC3CC(CC(C3)C1)C2 (stereo unspecified) | 4.63 µM | > 100 µM | > 100 µM | > 100 µM | > 100 µM | > 100 µM | > 100 µM | > 100 µM | > 100 µM | > 100 µM | > 100 µM | > 100 µM | > 100 µM | > 100 µM | > 100 µM | > 100 µM | > 100 µM |  | 
2 | O=C1C=CC2(C=C1)O[C@H](COCc1ccccc1)[C@@H](COCc1ccccc1)O2 | 6.4 µM | 3.89 µM | 2.37 µM | 0.849 µM | 14.3 µM | 3.88 µM | 3.1 µM | 3.62 µM | 3.53 µM | 30.3 µM | 2.22 µM | 4.29 µM | 4.17 µM | 5.51 µM | 3.71 µM | > 100 µM | 37.2 µM | 4.66 µM | 
3 | COC(=O)C(Cc1ccccc1)NC(=O)CSc1nnc(COc2ccc(Cl)cc2)n1-c1ccccc1 (stereo unspecified) | 46.6 µM | > 100 µM | 69.6 µM | > 100 µM | > 100 µM | 35.1 µM | 30.4 µM | 51.3 µM | 43.7 µM |  | 29.8 µM | 53.3 µM | 40 µM | 45.6 µM | 55.2 µM | > 100 µM | 35.7 µM | 64.9 µM | 63.3 µM
4 | N#Cc1cc2c(cc1C#N)SCCSCCCSCCS2 |  | > 84.8 µM | 31.2 µM | > 70.3 µM | > 100 µM | > 100 µM | 19.4 µM | 43.2 µM | > 100 µM | 18.3 µM | 19 µM | 38.3 µM | 14.3 µM | > 100 µM | > 100 µM | > 100 µM | > 53.8 µM | > 100 µM | > 75 µM
5 | CCCc1nnc2sc(COc3ccc(OCc4nn5c(CCC)nnc5s4)c(Cl)c3)nn12 | 40.9 µM | > 100 µM | > 100 µM | 64.1 µM | > 100 µM | 73 µM | 59.1 µM | > 100 µM | 45.4 µM | > 100 µM | > 100 µM | > 100 µM | 93.5 µM | 59 µM | > 100 µM | > 100 µM | 78.1 µM | 74.6 µM | 
6 | C#CCN(Cc1ccc2nc(-c3ccccc3)c(Cl)nc2c1)c1ccc(F)cc1 | 87.2 µM |  | > 100 µM | > 100 µM | > 100 µM | > 100 µM | > 100 µM | > 100 µM | > 100 µM | > 100 µM | > 100 µM | > 100 µM | > 100 µM | > 100 µM | > 100 µM |  | > 100 µM | > 100 µM | > 100 µM
